Source: ChEMBL document CHEMBL1132131, “Dopamine-selective response in membrane potential by homooxacalix[3]arene triether host incorporated in PVC liquid membrane” (Bioorg Med Chem Lett, 1999)

Legend:
[1] = Selectivity of guest-induced changes in membrane potential at pH 5.0 for PVC matrix liquid membrane without any host; format: ADME
[2] = Selectivity of guest-induced changes in membrane potential at pH 5.0 for PVC matrix liquid membranes incorporated with o-Tolyloxy-acetic acid decyl ester polymer; format: ADME
[3] = Selectivity of guest-induced changes in membrane potential at pH 5.0 for PVC matrix liquid membranes incorporated with o-Tolyloxy-acetic acid ethyl ester polymer; format: ADME
[4] = Selectivity of guest-induced changes in membrane potential at pH 5.0 for PVC matrix liquid membranes incorporated with (2-Butoxy-5-tert-butyl-3-methyl-phenyl)-methanol polymer; format: ADME
[5] = Selectivity of guest-induced changes in membrane potential at pH 5.0 for PVC matrix liquid membranes incorporated with 6,7,9,10,17,18,20,21-Octahydro-5,8,11,16,19,22-hexaoxa-dibenzo[a,j]cyclooctadecene; format: ADME
[6] = Partition coefficient (logP); format: physicochemical; conditions: octanol/water
[7] = Selectivity of guest-induced changes in membrane potential(Kpot A,B) at pH 5.0 for PVC matrix liquid membranes incorporated with 6,7,9,10,17,18,20,21-Octahydro-5,8,11,16,19,22-hexaoxa-dibenzo[a,j]cyclooctadecene; format: ADME

SMILES | Kpot A,B [1] | Kpot A,B [2] | Kpot A,B [3] | Kpot A,B [5] | logP [6] | Kpot A,B [7] | Kpot A,B [4]
NC12CC3CC(CC(C3)C1)C2 [AMANTADINE] | 1.2 | < 0.01 | < 0.01 | 14.8 | 1.77 | – | 1.85
NCc1ccccc1 [BENZYLAMINE] | 0.78 | 0.15 | 0.15 | – | – | 0.9 | 0.45
CCCCCCCCN | 1.68 | 2.58 | 3.52 | 19 | 2.93 | – | 2.01
NCCc1ccccc1 [PHENETHYLAMINE] | 1 | 1 | 1 | 1 | 1.58 | – | 1

More lines, main results first:

Kpot A,B [1] | Kpot A,B [2] | Kpot A,B [3] | Kpot A,B [5] | logP [6] | Kpot A,B [7] | SMILES | Kpot A,B [4]
– | – | – | – | 0.82 | – | NC[C@H](O)c1ccc(O)c(O)c1 [NOREPINEPHRINE] | –
0.56 | < 0.01 | < 0.01 | 0.4 | 0.72 | – | CC(C)(C)N [TERT-BUTYLAMINE] | 0.31
1 | 1 | 1 | – | 0.82 | – | NCCc1ccc(O)c(O)c1 [DOPAMINE] | 1
0.65 | 0.089 | 0.09 | – | 0.59 | – | CNC[C@H](O)c1ccc(O)c(O)c1 [EPINEPHRINE] | < 0.01
